US8158792B2, “Spiropiperidines for use as tryptase inhibitors” (Janssen Pharmaceutica N.V., priority 2007, dated 2012)

Target: human lung tryptase
Experiment: β-Tryptase In-Vitro Enzyme Assay
Assay type: biochemical
Conditions: human lung tryptase 1 nM, substrate H-D-HHT-Ala-Arg-pNa 500 μM, pH 7.4, room temperature
Protocol: The β-tryptase assay was conducted with human lung tryptase (Cortex Biochem #CP3033) in an aqueous buffer (10 mM Tris, 10 mM Hepes, 150 mM NaCl, 0.1% PEG 8000, pH 7.4) using the chromogenic substrate H-D-HHT-Ala-Arg-pNa. […] Percent inhibition was calculated by comparing the initial reaction velocity of samples without inhibitor to those with inhibitor. The initial reaction velocities were analyzed using Microsoft Excel.

SMILES: CS(=O)(=O)CS(=O)(=O)N1CC2(CCN(C(=O)c3ccc(C#Cc4ccccc4)o3)CC2)c2cc(CN)ccc21 [Cpd 348, 1-(5-phenylethynyl-furan-2-yl)carbonyl-1′-(methylsulfonylmethyl)sulfonyl-5′-aminomethyl-spiro[piperidine-4,3′-(2H)-indole]]
- IC50: 24 nM

SMILES: CCSc1sc(C(=O)N2CCC3(CC2)COc2ccc(CN)cc23)c2c1C(=O)CC(C)(C)C2 [Cpd 223, 1-(3-ethylthio-4-oxo-6,6-dimethyl-6,7-dihydro-5H-benzo[c]thien-1-yl)carbonyl-5′-aminomethyl-spiro[piperidine-4,3′-(2H)-benzo[b]furan]]
- IC50: 21 nM

SMILES: NCc1ccc2c(c1)C1(CCN(C(=O)c3cc4c(F)cccc4s3)CC1)CO2 [Cpd 168, 1-(4-fluoro-benzo[b]thien-2-yl)carbonyl-5′-aminomethyl-spiro[piperidine-4,3′-(2H)-benzo[b]furan]]
- IC50: 48 nM

SMILES: CNNC(=O)CS(=O)(=O)N1CC2(CCN(C(=O)c3ccc(C#Cc4ccccc4)o3)CC2)c2cc(CN)ccc21 [Cpd 349, 1-(5-phenylethynyl-furan-2-yl)carbonyl-1′-(N′-methylhydrazino-carbonylmethyl)sulfonyl-5′-aminomethyl-spiro[piperidine-4,3′-(2H)-indole]]
- IC50: 16 nM

SMILES: NCc1ccc2c(c1)C1(CCN(C(=O)c3ccc(Cl)cc3)CC1)CO2 [Cpd 44, 1-(4-chloro-phenyl)carbonyl-5′-aminomethyl-spiro[piperidine-4,3′-(2H)-benzo[b]furan]]
- IC50: 230 nM

SMILES: NCc1ccc2c(c1)C1(CCN(C(=O)/C=C\c3c[nH]cn3)CC1)CO2 [Cpd 243, (Z)-1-(imidazol-4-ylethenyl)carbonyl-5′-aminomethyl-spiro[piperidine-4,3′-(2H)-benzo[b]furan]]
- IC50: 3100 nM

SMILES: NCc1ccc2c(c1)C1(CCN(C(=O)c3ccc(-c4cccc(C(F)(F)F)c4)cc3)CC1)CO2 [Cpd 15, 1-[4-(3-trifluoromethyl-phenyl)-phenyl]carbonyl-5′-aminomethyl-spiro[piperidine-4,3′-(2H)-benzo[b]furan]]
- IC50: 5500 nM

SMILES: NCc1ccc2c(c1)C1(CCN(C(=O)c3cccs3)CC1)CO2 [Cpd 159, 1-thien-2-ylcarbonyl-5′-aminomethyl-spiro[piperidine-4,3′-(2H)-benzo[b]furan]]
- IC50: 210 nM

SMILES: CCCOc1sc(C(=O)N2CCC3(CC2)COc2ccc(CN)cc23)c(C)c1Br [Cpd 303, 1-(3-methyl-4-bromo-5-propoxy-thien-2-yl)carbonyl-5′-aminomethyl-spiro[piperidine-4,3′-(2H)-benzo[b]furan]]
- IC50: 3.7 nM

SMILES: Cc1ccc(C(=O)N2CCC3(CC2)COc2ccc(CN)cc23)cc1I [Cpd 50, 1-(3-iodo-4-methyl-phenyl)carbonyl-5′-aminomethyl-spiro[piperidine-4,3′-(2H)-benzo[b]furan]]
- IC50: 36 nM

SMILES: CCCOc1sc(C(=O)N2CCC3(CC2)CN(S(=O)(=O)O)c2ccc(CN)cc23)c(C)c1Br [Cpd 346, 1-(3-methyl-4-bromo-5-propoxy-thien-2-yl)carbonyl-1′-hydroxysulfonyl-5′-aminomethyl-spiro[piperidine-4,3′-(2H)-indole]]
- IC50: 40 nM

SMILES: COc1ccc(C(=O)N2CCC3(CC2)COc2ccc(CN)cc23)cc1Cl [Cpd 28, 1-(3-chloro-4-methoxy-phenyl)carbonyl-5′-aminomethyl-spiro[piperidine-4,3′-(2H)-benzo[b]furan]]
- IC50: 120 nM

SMILES: COC(=O)c1cccc(S(=O)(=O)N2CC3(CCN(C(=O)c4ccc(C#Cc5ccccc5)o4)CC3)c3cc(CN)ccc32)c1 [Cpd 344, 1-(5-phenylethynyl-furan-2-yl)carbonyl-1′-(3-methoxycarbonyl-phenyl)sulfonyl-5′-aminomethyl-spiro[piperidine-4,3′-(2H)-indole]]
- IC50: 23 nM

SMILES: NCc1ccc2c(c1)C1(CCN(C(=O)c3ccc(S(N)(=O)=O)cc3)CC1)CO2 [Cpd 11, 1-(4-aminosulfonyl-phenyl)carbonyl-5′-aminomethyl-spiro[piperidine-4,3′-(2H)-benzo[b]furan]]
- IC50: 4700 nM

SMILES: NS(=O)(=O)NCc1ccc2c(c1)C1(CCN(C(=O)c3ccc(C#Cc4ccccc4)o3)CC1)CO2 [Cpd 305, 1-(5-phenylethynyl-furan-2-yl)carbonyl-5′-aminosulfonylaminomethyl-spiro[piperidine-4,3′-(2H)-benzo[b]furan]]
- IC50: 6300 nM

SMILES: NCc1ccc2c(c1)C1(CCN(C(=O)Cc3cccc(Br)c3)CC1)CO2 [Cpd 87, 1-(3-bromo-benzyl)carbonyl-5′-aminomethyl-spiro[piperidine-4,3′-(2H)-benzo[b]furan]]
- IC50: 1700 nM

SMILES: NCc1ccc2c(c1)C1(CCN(C(=O)/C(F)=C/c3ccccc3)CC1)CO2 [Cpd 162, (Z)-1-(1-fluoro-2-phenylethenyl)carbonyl-5′-aminomethyl-spiro[piperidine-4,3′-(2H)-benzo[b]furan]]
- IC50: 79 nM

SMILES: NCc1ccc2c(c1)C1(CCN(C(=O)c3ccc(Cl)c(Cl)c3)CC1)CS2 [Cpd 353, 1-(3,4-dichlorophenyl)carbonyl-5′-aminomethyl-spiro[piperidine-4,3′-(2H)-benzo[b]thiophene]]
- IC50: 37 nM

SMILES: Cc1ccccc1Oc1cccc(CC(=O)N2CCC3(CC2)COc2ccc(CN)cc23)c1 [Cpd 208, 1-[3-(2-methyl-phenoxy)-benzyl]carbonyl-5′-aminomethyl-spiro[piperidine-4,3′-(2H)-benzo[b]furan]]
- IC50: 12 nM

SMILES: NCc1ccc2c(c1)C1(CCN(C(=O)C#Cc3ccccc3)CC1)CO2 [Cpd 108, 1-(phenylethynyl)carbonyl-5′-aminomethyl-spiro[piperidine-4,3′-(2H)-benzo[b]furan]]
- IC50: 250 nM

SMILES: NCc1ccc2c(c1)C1(CCN(C(=O)c3ccc(C#Cc4ccccc4)o3)CC1)NC2=O [Cpd 317, 1-(5-phenylethynyl-furan-2-yl)carbonyl-1′-oxo-5′-aminomethyl-spiro[piperidine-4,3′-1H-isoindole]]
- IC50: 7.3 nM

SMILES: NCc1ccc2c(c1)C1(CCN(C(=O)c3cccc(C(=O)c4ccccc4)c3)CC1)CO2 [Cpd 4, 1-(3-benzoyl-phenyl)carbonyl-5′-aminomethyl-spiro[piperidine-4,3′-(2H)-benzo[b]furan]]
- IC50: 750 nM

SMILES: NCc1ccc2c(c1)C1(CCN(C(=O)c3cc4c(s3)CCC4)CC1)CO2 [Cpd 246, 1-(5,6-dihydro-4H-cyclopenta[b]thien-2-yl)carbonyl-5′-aminomethyl-spiro[piperidine-4,3′-(2H)-benzo[b]furan]]
- IC50: 200 nM

SMILES: NCc1ccc2c(c1)C1(CCN(C(=O)Cc3ccc(F)c(F)c3)CC1)CO2 [Cpd 82, 1-(3,4-difluoro-benzyl)carbonyl-5′-aminomethyl-spiro[piperidine-4,3′-(2H)-benzo[b]furan]]
- IC50: 1300 nM

SMILES: NCc1ccc2c(c1)C1(CCN(C(=O)c3ccc(-n4cc(-c5nc6ccccc6o5)cn4)cc3)CC1)CO2 [Cpd 17, 1-{4-[(4-benzoxazol-2-yl)-pyrazol-1-yl]-phenyl}carbonyl-5′-aminomethyl-spiro[piperidine-4,3′-(2H)-benzo[b]furan]]
- IC50: 290 nM

SMILES: CC(C)(C)c1cccc(C(=O)N2CCC3(CC2)COc2ccc(CN)cc23)c1 [Cpd 274, 1-(3-tert-butyl-phenyl)carbonyl-5′-aminomethyl-spiro[piperidine-4,3′-(2H)-benzo[b]furan]]
- IC50: 6400 nM

SMILES: NCc1ccc2c(c1)C1(CCN(C(=O)Cc3cccc(Cl)c3)CC1)CO2 [Cpd 81, 1-(3-chloro-benzyl)carbonyl-5′-aminomethyl-spiro[piperidine-4,3′-(2H)-benzo[b]furan]]
- IC50: 2300 nM
